Assay results: patent publication US8614201B2 (Janssen Pharmaceutica NV, priority 2009, dated 2013)

target: Human TRPA1 (Homo sapiens, UniProt O75762); assay: Alternative TRPA1 Ca2+ fluorometry assay (hTRPA1/TREx-HEK293 cells, Fluo-4, FDSS 6000); type: cell-based; set-up: expressed in transfected cells; conditions: Fluo-4-AM, agonist 6,11-dihydro-5H-dibenzo[b,e]azepine-10-carboxylic acid methyl ester 25 nM, procedure used for Examples 184, 190 to 192, 194 to 316
How it was run: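 Tetracycline-induced (50 ng/ml, 24 h) hTRPA1/TREx-HEK293 cells were loaded with Fluo-4-AM and probenecid. Compound (1% DMSO final) was added after a 12 s baseline and the Ca2+ signal followed for 14 min, then 25 nM TRPA1 agonist dibenzazepine carboxylic acid methyl ester was applied. Signal is Em540 (ex 488 nm) relative to the first baseline reading.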

Sequence of Human TRPA1 (O75762 whole entry): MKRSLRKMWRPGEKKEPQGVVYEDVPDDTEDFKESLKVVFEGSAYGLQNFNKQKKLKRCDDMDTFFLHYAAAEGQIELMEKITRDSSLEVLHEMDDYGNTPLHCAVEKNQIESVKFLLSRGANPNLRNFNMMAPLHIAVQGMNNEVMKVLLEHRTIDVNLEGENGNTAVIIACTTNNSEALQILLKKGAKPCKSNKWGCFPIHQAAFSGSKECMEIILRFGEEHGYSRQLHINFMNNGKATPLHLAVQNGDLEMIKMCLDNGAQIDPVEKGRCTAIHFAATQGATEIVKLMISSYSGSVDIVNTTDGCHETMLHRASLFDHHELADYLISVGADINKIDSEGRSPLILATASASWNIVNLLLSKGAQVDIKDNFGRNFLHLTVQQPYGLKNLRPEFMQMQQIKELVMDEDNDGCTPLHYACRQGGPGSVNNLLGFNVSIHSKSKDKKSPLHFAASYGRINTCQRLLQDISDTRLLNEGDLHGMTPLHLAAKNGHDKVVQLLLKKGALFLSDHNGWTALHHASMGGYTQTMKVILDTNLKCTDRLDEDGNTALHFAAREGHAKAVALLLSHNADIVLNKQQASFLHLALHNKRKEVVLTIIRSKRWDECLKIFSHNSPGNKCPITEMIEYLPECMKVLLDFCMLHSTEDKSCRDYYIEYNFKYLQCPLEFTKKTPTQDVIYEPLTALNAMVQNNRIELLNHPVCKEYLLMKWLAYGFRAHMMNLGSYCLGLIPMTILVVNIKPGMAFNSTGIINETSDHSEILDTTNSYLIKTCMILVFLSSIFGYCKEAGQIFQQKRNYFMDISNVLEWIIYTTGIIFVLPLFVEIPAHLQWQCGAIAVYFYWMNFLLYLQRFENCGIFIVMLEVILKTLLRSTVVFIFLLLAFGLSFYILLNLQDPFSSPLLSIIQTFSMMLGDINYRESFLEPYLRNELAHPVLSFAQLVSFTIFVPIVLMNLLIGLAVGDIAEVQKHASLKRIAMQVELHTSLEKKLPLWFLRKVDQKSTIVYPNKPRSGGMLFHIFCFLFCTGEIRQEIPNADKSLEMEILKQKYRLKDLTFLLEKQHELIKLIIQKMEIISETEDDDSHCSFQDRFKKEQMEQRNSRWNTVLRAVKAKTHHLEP

| SMILES | IC50 [µM] |
| --- | --- |
| CC(=O)c1ccc(S(=O)(=O)N2CCC[C@H]2C(=O)NCc2cc(-c3ccc(C(F)(F)F)cc3)nc(N3CCN(c4ccccc4F)CC3)n2)cc1 [Example 274, 1-(4-Acetyl-benzenesulfonyl)-pyrrolidine-2S-carboxylic acid [2-[4-(2-fluoro-phenyl)-piperazin-1-yl]-6-(4-trifluoromethyl-phenyl)-pyrimidin-4-ylmethyl]-amide] | > 10 |
| Cc1cc(C)c(S(=O)(=O)N2CCC[C@H]2C(=O)NCc2cc(-c3ccc(C(F)(F)F)cc3)nc(N3CCN(c4ccccc4F)CC3)n2)c(C)c1 [Example 275, 1-(2,4,6-Trimethyl-benzenesulfonyl)-pyrrolidine-2-carboxylic acid [2-[4-(2-fluoro-phenyl)-piperazin-1-yl]-6-(4-trifluoromethyl-phenyl)-pyrimidin-4-ylmethyl]-amide] | > 10 |
| O=C(NCc1cc(-c2ccc(C(F)(F)F)cc2)nc(N2CCN(c3ccccc3F)CC2)n1)[C@@H]1CCCN1S(=O)(=O)c1ccccc1F [Example 276, 1-(2-Fluoro-benzenesulfonyl)-pyrrolidine-2S-carboxylic acid [2-[4-(2-fluoro-phenyl)-piperazin-1-yl]-6-(4-trifluoromethyl-phenyl)-pyrimidin-4-ylmethyl]-amide] | 6.17 |
| Cc1cccc(Cl)c1S(=O)(=O)N1CCC[C@H]1C(=O)NCc1cc(-c2ccc(C(F)(F)F)cc2)nc(N2CCN(c3ccccc3F)CC2)n1 [Example 277, 1-(2-Chloro-6-methyl-benzenesulfonyl)-pyrrolidine-2S-carboxylic acid [2-[4-(2-fluoro-phenyl)-piperazin-1-yl]-6-(4-trifluoromethyl-phenyl)-pyrimidin-4-ylmethyl]-amide] | > 10 |
| O=C(NCc1cc(-c2ccc(C(F)(F)F)cc2)nc(N2CCN(c3ccccc3F)CC2)n1)[C@@H]1CCCN1S(=O)(=O)c1ccc(Cl)cc1F [Example 278, 1-(4-Chloro-2-fluoro-benzenesulfonyl)-pyrrolidine-2S-carboxylic acid [2-[4-(2-fluoro-phenyl)-piperazin-1-yl]-6-(4-trifluoromethyl-phenyl)-pyrimidin-4-ylmethyl]-amide] | > 10 |
| Cc1ccccc1S(=O)(=O)N1CCC[C@H]1C(=O)NCc1cc(-c2ccc(C(F)(F)F)cc2)nc(N2CCN(c3ccccc3F)CC2)n1 [Example 279, 1-(Toluene-2-sulfonyl)-pyrrolidine-2S-carboxylic acid [2-[4-(2-fluoro-phenyl)-piperazin-1-yl]-6-(4-trifluoromethyl-phenyl)-pyrimidin-4-ylmethyl]-amide] | > 10 |
| Cc1ccc(S(=O)(=O)N2CCC[C@H]2C(=O)NCc2cc(-c3ccc(C(F)(F)F)cc3)nc(N3CCN(c4ccccc4F)CC3)n2)cc1Cl [Example 280, 1-(3-Chloro-4-methyl-benzenesulfonyl)-pyrrolidine-2S-carboxylic acid [2-[4-(2-fluoro-phenyl)-piperazin-1-yl]-6-(4-trifluoromethyl-phenyl)-pyrimidin-4-ylmethyl]-amide] | > 10 |
| O=C(NCc1cc(-c2ccc(C(F)(F)F)cc2)nc(N2CCN(c3ccccc3F)CC2)n1)[C@@H]1CCCN1S(=O)(=O)c1cc(F)cc(F)c1 [Example 281, 1-(3,5-Difluoro-benzenesulfonyl)-pyrrolidine-2S-carboxylic acid [2-[4-(2-fluoro-phenyl)-piperazin-1-yl]-6-(4-trifluoromethyl-phenyl)-pyrimidin-4-ylmethyl]-amide] | 5.49 |
| CC(C)(C)c1ccc(S(=O)(=O)N2CCC[C@H]2C(=O)NCc2cc(-c3ccc(C(F)(F)F)cc3)nc(N3CCN(c4ccccc4F)CC3)n2)cc1 [Example 282, 1-(4-tert-Butyl-benzenesulfonyl)-pyrrolidine-2S-carboxylic acid [2-[4-(2-fluoro-phenyl)-piperazin-1-yl]-6-(4-trifluoromethyl-phenyl)-pyrimidin-4-ylmethyl]-amide] | > 10 |
| O=C(NCc1cccc(-c2ccc(C(F)(F)F)cc2)n1)[C@@H]1CCCN1S(=O)(=O)c1ccc(F)cc1 [Example 283, 1-(4-Fluoro-benzenesulfonyl)-pyrrolidine-2S-carboxylic acid [6-(4-trifluoromethyl-phenyl)-pyridin-2-ylmethyl]-amide] | ~0.724 |
| O=C(NCc1cccc(-c2ccc(C(F)(F)F)cc2)n1)[C@@H]1CCCN1S(=O)(=O)c1ccc(Cl)s1 [Example 284, 1-(5-Chloro-thiophene-2-sulfonyl)-pyrrolidine-2S-carboxylic acid [6-(4-trifluoromethyl-phenyl)-pyridin-2-ylmethyl]-amide] | ~1.07 |
| O=C(NCc1cc(-c2ccc(C(F)(F)F)cc2)nc(-c2ccc(C(F)(F)F)cc2)n1)[C@@H]1CCCN1S(=O)(=O)c1ccc(F)cc1 [Example 285, 1-(4-Fluoro-benzenesulfonyl)-pyrrolidine-2S-carboxylic acid [2,6-bis-(4-trifluoromethyl-phenyl)-pyrimidin-4-ylmethyl]-amide] | 0.022 |
| O=C(NCc1cc(-c2ccc(C(F)(F)F)cc2)nc(N2CCN(c3ccccc3F)CC2)n1)[C@@H]1CCCN1S(=O)(=O)c1ccc(F)cc1 [Example 286, 1-(4-Fluoro-benzenesulfonyl)-pyrrolidine-2S-carboxylic acid [2-[4-(2-fluoro-phenyl)-piperazin-1-yl]-6-(4-trifluoromethyl-phenyl)-pyrimidin-4-ylmethyl]-amide] | ~0.158 |
| COc1ccc(Nc2nc(CNC(=O)[C@@H]3CCCN3S(=O)(=O)c3ccc(F)cc3)cc(-c3ccc4c(c3)OCO4)n2)cc1 [Example 287, 1-(4-Fluoro-benzenesulfonyl)-pyrrolidine-2S-carboxylic acid [6-benzo[1,3]dioxol-5-yl-2-(4-methoxy-phenylamino)-pyrimidin-4-ylmethyl]-amide] | 3.72 |
| CN1CCN(C(=O)c2ccc(Nc3nc(CNC(=O)[C@@H]4CCCN4S(=O)(=O)c4ccc(F)cc4)cc(-c4ccc5c(c4)OCO5)n3)cc2)CC1 [Example 288, 1-(4-Fluoro-benzenesulfonyl)-pyrrolidine-2S-carboxylic acid {6-benzo[1,3]dioxol-5-yl-2-[4-(4-methyl-piperazine-1-carbonyl)-phenylamino]-pyrimidin-4-ylmethyl}-amide] | > 10 |
| CC(C)CN(CCO)c1nc(CNC(=O)[C@@H]2CCCN2S(=O)(=O)c2ccc(F)cc2)cc(-c2ccc(Br)cc2)n1 [Example 289, 1-(4-Fluoro-benzenesulfonyl)-pyrrolidine-2S-carboxylic acid {6-(4-bromo-phenyl)-2-[(2-hydroxy-ethyl)-isobutyl-amino]-pyrimidin-4-ylmethyl}-amide] | ~3.47 |
| O=C(NCc1cc(-c2ccc(Br)cc2)nc(NC2CC2)n1)[C@@H]1CCCN1S(=O)(=O)c1ccc(F)cc1 [Example 290, 1-(4-Fluoro-benzenesulfonyl)-pyrrolidine-2S-carboxylic acid [6-(4-bromo-phenyl)-2-cyclopropylamino-pyrimidin-4-ylmethyl]-amide] | ~0.708 |
| C#CCNc1nc(CNC(=O)[C@@H]2CCCN2S(=O)(=O)c2ccc(F)cc2)cc(-c2ccc(C(F)(F)F)cc2)n1 [Example 291] | ~0.407 |
| O=C(NCc1cc(-c2ccc3c(c2)OCO3)nc(NCCc2ccc(Cl)cc2Cl)n1)[C@@H]1CCCN1S(=O)(=O)c1ccc(F)cc1 [Example 292, 1-(4-Fluoro-benzenesulfonyl)-pyrrolidine-2S-carboxylic acid {6-benzo[1,3]dioxol-5-yl-2-[2-(2,4-dichloro-phenyl)-ethylamino]-pyrimidin-4-ylmethyl}-amide] | > 10 |
| O=C(NCc1cc(-c2ccc(Br)cc2)nc(NCCO)n1)[C@@H]1CCCN1S(=O)(=O)c1ccc(F)cc1 [Example 293, 1-(4-Fluoro-benzenesulfonyl)-pyrrolidine-2S-carboxylic acid [6-(4-bromo-phenyl)-2-(2-hydroxy-ethylamino)-pyrimidin-4-ylmethyl]-amide] | 2.69 |
| O=C(NCc1cc(-c2ccc(C(F)(F)F)cc2)nc(NCc2cccnc2)n1)[C@@H]1CCCN1S(=O)(=O)c1ccc(F)cc1 [Example 294, 1-(4-Fluoro-benzenesulfonyl)-pyrrolidine-2S-carboxylic acid [2-[(pyridin-3-ylmethyl)-amino]-6-(4-trifluoromethyl-phenyl)-pyrimidin-4-ylmethyl]-amide] | ~1 |
| O=C(NCc1cc(-c2ccc(Br)cc2)nc(NCCc2ccccn2)n1)[C@@H]1CCCN1S(=O)(=O)c1ccc(F)cc1 [Example 295, 1-(4-Fluoro-benzenesulfonyl)-pyrrolidine-2S-carboxylic acid [6-(4-bromo-phenyl)-2-(2-pyridin-2-yl-ethylamino)-pyrimidin-4-ylmethyl]-amide] | 1.74 |
| CC1CCN(c2nc(CNC(=O)[C@@H]3CCCN3S(=O)(=O)c3ccc(F)cc3)cc(-c3ccc(Br)cc3)n2)CC1 [Example 296, 1-(4-Fluoro-benzenesulfonyl)-pyrrolidine-2S-carboxylic acid [6-(4-bromo-phenyl)-2-(4-methyl-piperidin-1-yl)-pyrimidin-4-ylmethyl]-amide] | 4.47 |
| O=C(NCc1cc(-c2ccc(C(F)(F)F)cc2)nc(N2CCN(Cc3ccc4c(c3)OCO4)CC2)n1)[C@@H]1CCCN1S(=O)(=O)c1ccc(F)cc1 [Example 297, 1-(4-Fluoro-benzenesulfonyl)-pyrrolidine-2S-carboxylic acid [2-(4-benzo[1,3]dioxol-5-ylmethyl-piperazin-1-yl)-6-(4-trifluoromethyl-phenyl)-pyrimidin-4-ylmethyl]-amide] | 0.355 |
| NC(=O)C1CCCN(c2nc(CNC(=O)[C@@H]3CCCN3S(=O)(=O)c3ccc(F)cc3)cc(-c3ccc(C(F)(F)F)cc3)n2)C1 (stereo partly drawn) [Example 298, 1-[4-({[1-(4-Fluoro-benzenesulfonyl)-pyrrolidine-2S-carbonyl]-amino}-methyl)-6-(4-trifluoromethyl-phenyl)-pyrimidin-2-yl]-piperidine-3-carboxylic acid amide] | 4.68 |
